Data from patent US20150099800A1, “NOVEL LIPASE INHIBITORS, REPORTER SUBSTRATES AND USES THEREOF” (Northeastern University, priority 2012, published 2015).
pIC50: −log10 of the molar value. Where two headings read alike, the source gives them in different places. Blank lines part the entries; values can stand above or below the molecule they belong to.

Columns and labels:
hDAGLα [1] = target: T1, hDAGLα (Homo sapiens, UniProt Q9Y4D2)
T1 sequence (Q9Y4D2 1-1042): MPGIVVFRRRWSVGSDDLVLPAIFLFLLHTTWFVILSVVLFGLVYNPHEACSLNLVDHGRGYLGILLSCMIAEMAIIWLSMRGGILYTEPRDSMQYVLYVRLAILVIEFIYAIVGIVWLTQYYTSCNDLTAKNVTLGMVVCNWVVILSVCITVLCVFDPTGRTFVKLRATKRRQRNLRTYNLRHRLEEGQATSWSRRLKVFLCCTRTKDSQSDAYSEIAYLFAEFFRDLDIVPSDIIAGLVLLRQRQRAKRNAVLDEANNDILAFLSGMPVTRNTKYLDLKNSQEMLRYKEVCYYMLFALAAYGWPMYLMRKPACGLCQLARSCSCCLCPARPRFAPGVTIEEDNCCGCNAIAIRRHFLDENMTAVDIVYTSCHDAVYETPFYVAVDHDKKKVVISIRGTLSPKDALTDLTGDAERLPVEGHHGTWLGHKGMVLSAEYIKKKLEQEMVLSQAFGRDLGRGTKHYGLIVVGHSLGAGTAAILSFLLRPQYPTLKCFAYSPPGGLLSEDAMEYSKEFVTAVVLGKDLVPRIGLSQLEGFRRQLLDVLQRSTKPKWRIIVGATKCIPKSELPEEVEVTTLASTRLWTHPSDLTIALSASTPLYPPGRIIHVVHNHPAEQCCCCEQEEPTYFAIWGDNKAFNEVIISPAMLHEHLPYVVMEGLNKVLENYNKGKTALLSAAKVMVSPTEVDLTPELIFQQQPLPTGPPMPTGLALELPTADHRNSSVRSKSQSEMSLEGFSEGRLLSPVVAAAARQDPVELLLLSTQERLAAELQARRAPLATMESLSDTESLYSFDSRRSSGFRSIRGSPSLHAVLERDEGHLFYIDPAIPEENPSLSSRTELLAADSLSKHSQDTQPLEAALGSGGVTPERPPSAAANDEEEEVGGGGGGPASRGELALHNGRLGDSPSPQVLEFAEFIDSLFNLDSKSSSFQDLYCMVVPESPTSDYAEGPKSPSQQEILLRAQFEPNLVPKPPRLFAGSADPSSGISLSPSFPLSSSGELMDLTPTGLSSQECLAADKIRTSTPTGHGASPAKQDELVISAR

[2] = target: T2, Pancreatic Lipase (Porcine) (Sus scrofa, UniProt P00591); format: biochemical
T2 construct: purchased Sigma L3126
T2 sequence (P00591 1-450): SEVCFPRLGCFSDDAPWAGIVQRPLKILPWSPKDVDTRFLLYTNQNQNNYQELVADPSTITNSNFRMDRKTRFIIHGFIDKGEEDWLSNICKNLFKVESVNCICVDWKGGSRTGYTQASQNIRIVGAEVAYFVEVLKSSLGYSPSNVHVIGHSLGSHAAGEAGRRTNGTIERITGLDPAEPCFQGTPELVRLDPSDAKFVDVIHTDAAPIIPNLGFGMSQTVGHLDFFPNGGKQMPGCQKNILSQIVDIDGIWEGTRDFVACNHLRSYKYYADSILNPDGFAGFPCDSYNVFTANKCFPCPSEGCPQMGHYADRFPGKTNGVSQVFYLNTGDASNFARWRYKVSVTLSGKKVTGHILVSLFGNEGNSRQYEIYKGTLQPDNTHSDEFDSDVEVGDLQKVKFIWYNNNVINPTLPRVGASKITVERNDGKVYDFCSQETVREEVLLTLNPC

MAGL = target: T3, MAGL (Homo sapiens, UniProt Q99685); assay: hMAGL coumarin substrate fluorescence assay; format: biochemical; parameters: The N-terminal his-tagged full length human monoacylglycerol lipase used; His (N); made in house; host or cells: E. coli
T3 sequence (Q99685 1-303): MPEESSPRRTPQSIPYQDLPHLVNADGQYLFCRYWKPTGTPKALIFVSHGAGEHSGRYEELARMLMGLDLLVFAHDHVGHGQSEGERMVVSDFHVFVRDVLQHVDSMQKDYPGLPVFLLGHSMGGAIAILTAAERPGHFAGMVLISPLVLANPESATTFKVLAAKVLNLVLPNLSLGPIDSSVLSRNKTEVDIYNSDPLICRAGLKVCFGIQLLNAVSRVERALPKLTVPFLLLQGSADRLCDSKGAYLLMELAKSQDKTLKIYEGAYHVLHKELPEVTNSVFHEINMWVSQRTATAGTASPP

rFAAH = target: T4, rFAAH (Rattus norvegicus, UniProt P97612); assay: rFAAH coumarin substrate fluorescence assay; format: biochemical
T4 construct: His (N); made in house; host or cells: E. coli (cell line provided by the Cravatt group)
T4 sequence (P97612 30-579 limits assumed): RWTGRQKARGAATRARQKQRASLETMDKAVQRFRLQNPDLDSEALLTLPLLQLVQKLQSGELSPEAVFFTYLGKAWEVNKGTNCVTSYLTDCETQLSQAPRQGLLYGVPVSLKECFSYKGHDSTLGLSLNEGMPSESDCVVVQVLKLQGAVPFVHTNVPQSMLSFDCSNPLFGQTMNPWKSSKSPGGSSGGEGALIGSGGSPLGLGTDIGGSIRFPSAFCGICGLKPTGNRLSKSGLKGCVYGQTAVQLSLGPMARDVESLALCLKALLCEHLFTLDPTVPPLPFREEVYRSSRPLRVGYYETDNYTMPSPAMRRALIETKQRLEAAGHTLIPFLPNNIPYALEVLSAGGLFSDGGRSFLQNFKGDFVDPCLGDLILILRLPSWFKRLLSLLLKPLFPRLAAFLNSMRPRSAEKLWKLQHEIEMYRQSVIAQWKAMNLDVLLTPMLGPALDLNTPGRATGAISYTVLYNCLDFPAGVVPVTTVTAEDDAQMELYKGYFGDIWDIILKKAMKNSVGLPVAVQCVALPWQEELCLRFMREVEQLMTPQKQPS

[3] = tested on: Lipoprotein Lipase (Bacterial); format: biochemical, Pseudomonas sp.
hDAGLα [4] = target: T1, hDAGLα; remark: listed apart in the source
[5] = 10 μM, 0.05% Triton X-100 present

Structure (SMILES): CCCCCCCCCCC[C@@H](C[C@@H]1OC(=O)[C@H]1CCCCCC)OC(=O)[C@H](CC(C)C)NC=O [Compound 3, tetrahydrolipstatin]
inhibition of hDAGLα at 10 μM (hDAGLα [1]; 10 μM): complete inhibition | inhibition of porcine triacylglycerol lipase, FRET ([2]; preliminary studies): potent inhibition | inhibition at 10 µM ([2]; read-out: Pancreatic Lipase (Porcine) inhibition at 10 μM (%)): 96% | inhibition at 10 µM (MAGL; read-out: hMAGL inhibition at 10 μM (%)): 47% | inhibition at 10 µM (rFAAH; read-out: rFAAH inhibition at 10 μM (%)): 6% | inhibition of bacterial lipoprotein lipase, FRET ([3]; preliminary studies): potent inhibition | pIC50 ([3]; reporter compound (17), read-out: apparent IC50 with lipoprotein lipase, FRET assay): ~7.00

hDAGLα inhibition at 10 μM TLC (with Triton X-100) (%) (hDAGLα [1]; [5]): (78^A) % | hDAGLα inhibition at 10 μM (0.05% Triton X-100) (%), FRET (hDAGLα [4]; 10 μM): 98% | hDAGLα inhibition at 10 μM detergent free (%), FRET (hDAGLα [4]; 10 μM, detergent free): 90% | Pancreatic Lipase (Porcine) inhibition at 10 μM (%) ([2]; 10 μM): 99% | hMAGL inhibition at 10 μM (%) (MAGL; 10 μM): 39% | rFAAH inhibition at 10 μM (%) (rFAAH; 10 μM): 28% | Lipoprotein Lipase (Bacterial) inhibition at 10 μM (%) ([3]; 10 μM): 86%
Structure (SMILES): CCCCCCCCCCCC(CC1OC(=O)C1CCCCCC)OC(=O)C(NC=O)C(C)CC (centres unmarked) [Compound 6]

hDAGLα inhibition at 10 μM TLC (with Triton X-100) (%) (hDAGLα [1]; [5]): (86^A) % | hDAGLα inhibition at 10 μM (0.05% Triton X-100) (%), FRET (hDAGLα [4]; 10 μM): 98% | hDAGLα inhibition at 10 μM detergent free (%), FRET (hDAGLα [4]; 10 μM, detergent free): 90% | Pancreatic Lipase (Porcine) inhibition at 10 μM (%) ([2]; 10 μM): 95% | hMAGL inhibition at 10 μM (%) (MAGL; 10 μM): 42% | rFAAH inhibition at 10 μM (%) (rFAAH; 10 μM): 0% | Lipoprotein Lipase (Bacterial) inhibition at 10 μM (%) ([3]; 10 μM): 68%
Structure (SMILES): CCCCCCCCCCC[C@@H](C[C@@H]1OC(=O)[C@H]1CCCCCC)OC(=O)[C@H](NC=O)[C@@H](C)CC [Compound 7]

Structure (SMILES): O=C(Oc1ccc([N+](=O)[O-])cc1)N1CCC(C(O)(c2ccc3c(c2)OCO3)c2ccc3c(c2)OCO3)CC1 [JZL184]
hDAGLα inhibition at 10 μM TLC (with Triton X-100) (%) (hDAGLα [1]): (37^B) % | inhibition of hDAGLα in radio-TLC assays (hDAGLα [1]): poor inhibitors | hDAGLα inhibition at 10 μM detergent free (%), FRET (hDAGLα [4]): 59, 44° % | hDAGLα inhibition at 10 μM detergent free (%), FRET, marker ° (hDAGLα [4]): 59, 44° % | Pancreatic Lipase (Porcine) inhibition at 10 μM (%) [2]: 36% | hMAGL inhibition at 10 μM (%) (MAGL): 100^F % | rFAAH inhibition at 10 μM (%) (rFAAH): 97^E % | Lipoprotein Lipase (Bacterial) inhibition at 10 μM (%) [3]: 36%
